For the first data set, the target named is T1, ALK2 (Homo sapiens, UniProt Q04771, Q207D).
T1 construct: His tag (TEV-cleavable) (N, cleaved yes); made in house; host or cells: Sf9 insect cells (baculovirus)
T1 sequence (Q04771 201-499 Q207D): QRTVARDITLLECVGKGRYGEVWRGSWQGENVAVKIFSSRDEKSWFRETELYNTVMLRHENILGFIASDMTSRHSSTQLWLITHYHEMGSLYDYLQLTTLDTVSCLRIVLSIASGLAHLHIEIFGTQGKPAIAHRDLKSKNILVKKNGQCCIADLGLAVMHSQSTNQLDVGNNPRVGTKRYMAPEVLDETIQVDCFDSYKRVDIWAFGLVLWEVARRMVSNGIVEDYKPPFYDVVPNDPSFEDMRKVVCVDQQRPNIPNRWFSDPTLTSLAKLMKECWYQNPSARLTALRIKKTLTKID
Description: Thermal shift kinase assay ALK2. The conditions noted are these: ALK2 minus ALK5. In kind it is binding. As for the experimental part:
Thermal melting experiments were performed using a Real Time PCR machine Mx3005p (Stratagene) with a protein concentration of 1-2 μM and 10 μM inhibitor as described by Niesen et al., Nat Protoc 2007, 2, 2212-21. Recombinant human kinases for DSF screening were prepared by SGC using the published methods of Sanvitale et al., PLoS One 2013, 8, e62721. The potency and selectivity of certain compounds of the invention based on thermal shift kinase and ligand induced transcriptional activity assays are shown in Table 2.
Regarding `CC(C)Oc1cccc(-c2cc(-c3ccc(N4CCNCC4)cc3)cnc2N)c1` [Compound 21, 3-(3-isopropoxyphenyl)-5-(4-(piperazin-1-yl)phenyl)pyridin-2-amine], the ΔTmDiff. is reported as 1.0.
On to `COc1cc(-c2cc(-c3ccc(N4CCNCC4)cc3)cnc2N)ccc1C` [Compound 23, 3-(3-methoxy-4-methylphenyl)-5-(4-(piperazin-1-yl)phenyl)pyridin-2-amine], for which the ΔTmDiff. is listed as 3.8.
Turning to `COc1cc(OC)cc(-c2cncc(-c3ccc(N4CCNCC4)cc3)c2)c1` [Compound 33, 1-(4-(5-(3,5-dimethoxyphenyl)pyridin-3-yl)phenyl)piperazine], the ΔTmDiff. is reported as 4.7.

A further data set relates to HePG2 hepatocarcinoma cells.
Assay: not given
Format: cell-based. The following applies: human, 4 h, 1 μM. How it is done:
The cells were incubated for 2 h (37° C. and 5% CO2) and allowed to settle and attach. Compounds of interest or DMSO were diluted in DMEM and added at final compound concentrations of 1 μM, 10 μM, and 100 μM. Cells were incubated for 4 hours and 24 hours after which the media was discarded. Cells were lysed by adding 30 μL of passive lysis buffer (Promega) and shaken at RT for 15 min. Cell viability was determined by quantifying the ATP present in each well by adding 10 μL of CellTiter-Glo (Promega) per well and measuring the light output Spectramax L luminometer (Molecular Devices) with an integration time of one second per well. Data was normalized to 100% viability for cells receiving only DMSO without any concurrent compound.
For the molecule `C#Cc1cccc(Nc2ncnc3cc(OCCOC)c(OCCOC)cc23)c1` [Erlotinib, reference compound], the Cell viability stood at 96%.
On to `N#CC[C@H](C1CCCC1)n1cc(-c2ncnc3[nH]ccc23)cn1` [Ruxolitinib, reference compound], for which the Cell viability came to 101%.
On to `CCN(CC)CCNC(=O)c1c(C)[nH]c(/C=C2\C(=O)Nc3ccc(F)cc32)c1C` [Sunitinib, reference compound], for which the Cell viability was 97%.
For the molecule `CS(=O)(=O)CCNCc1ccc(-c2ccc3ncnc(Nc4ccc(OCc5cccc(F)c5)c(Cl)c4)c3c2)o1` [Lapatinib, reference compound], the Cell viability worked out at 100%.
Turning to `CC(C)Oc1cccc(-c2cc(-c3ccc(N4CCNCC4)cc3)cnc2N)c1` [Compound 21, 3-(3-isopropoxyphenyl)-5-(4-(piperazin-1-yl)phenyl)pyridin-2-amine], the Cell viability was found to be 94%.
Turning to `COc1cc(-c2cc(-c3ccc(N4CCNCC4)cc3)cnc2N)ccc1C` [Compound 23, 3-(3-methoxy-4-methylphenyl)-5-(4-(piperazin-1-yl)phenyl)pyridin-2-amine], the Cell viability turned out to be 95%.
`COc1cc(OC)cc(-c2cncc(-c3ccc(N4CCNCC4)cc3)c2)c1` [Compound 33, 1-(4-(5-(3,5-dimethoxyphenyl)pyridin-3-yl)phenyl)piperazine]: the Cell viability was 95%.
On the same count and under the same terms, in the case of `COc1cc2ncnc(Nc3ccc(F)c(Cl)c3)c2cc1OCCCN1CCOCC1` [Gefitinib, reference compound] it was 93%.
`CCCS(=O)(=O)Nc1ccc(F)c(C(=O)c2c[nH]c3ncc(-c4ccc(Cl)cc4)cc23)c1F` [Vemurafenib, reference compound]: the Cell viability is listed as 103%.
Still for that read-out and setting: in the case of `Cc1nc(Nc2ncc(C(=O)Nc3c(C)cccc3Cl)s2)cc(N2CCN(CCO)CC2)n1` [Dasatinib, reference compound] it was 94%; in that of `Cc1cn(-c2cc(NC(=O)c3ccc(C)c(Nc4nccc(-c5cccnc5)n4)c3)cc(C(F)(F)F)c2)cn1` [Nilotinib, reference compound], 99%.

The data set is the same for the next values; noted with them: human, 4 h, 10 μM.
`C#Cc1cccc(Nc2ncnc3cc(OCCOC)c(OCCOC)cc23)c1` [Erlotinib, reference compound]: the Cell viability is recorded as 107%.
Turning to `N#CC[C@H](C1CCCC1)n1cc(-c2ncnc3[nH]ccc23)cn1` [Ruxolitinib, reference compound], the Cell viability was 105%.
For `CCN(CC)CCNC(=O)c1c(C)[nH]c(/C=C2\C(=O)Nc3ccc(F)cc32)c1C` [Sunitinib, reference compound], the Cell viability came to 107%.
For the molecule `CS(=O)(=O)CCNCc1ccc(-c2ccc3ncnc(Nc4ccc(OCc5cccc(F)c5)c(Cl)c4)c3c2)o1` [Lapatinib, reference compound], the Cell viability came to 104%.
The same measure, in the same setting: the figure for `CC(C)Oc1cccc(-c2cc(-c3ccc(N4CCNCC4)cc3)cnc2N)c1` [Compound 21, 3-(3-isopropoxyphenyl)-5-(4-(piperazin-1-yl)phenyl)pyridin-2-amine] is 105%.
Same read-out and setting: in the case of `COc1cc(-c2cc(-c3ccc(N4CCNCC4)cc3)cnc2N)ccc1C` [Compound 23, 3-(3-methoxy-4-methylphenyl)-5-(4-(piperazin-1-yl)phenyl)pyridin-2-amine] it was 101%; in that of `COc1cc(OC)cc(-c2cncc(-c3ccc(N4CCNCC4)cc3)c2)c1` [Compound 33, 1-(4-(5-(3,5-dimethoxyphenyl)pyridin-3-yl)phenyl)piperazine], 100%; in that of `COc1cc2ncnc(Nc3ccc(F)c(Cl)c3)c2cc1OCCCN1CCOCC1` [Gefitinib, reference compound], 105%.
For `CCCS(=O)(=O)Nc1ccc(F)c(C(=O)c2c[nH]c3ncc(-c4ccc(Cl)cc4)cc23)c1F` [Vemurafenib, reference compound], the Cell viability was 100%.
Turning to `Cc1nc(Nc2ncc(C(=O)Nc3c(C)cccc3Cl)s2)cc(N2CCN(CCO)CC2)n1` [Dasatinib, reference compound], the Cell viability came out at 107%.
Regarding `Cc1cn(-c2cc(NC(=O)c3ccc(C)c(Nc4nccc(-c5cccnc5)n4)c3)cc(C(F)(F)F)c2)cn1` [Nilotinib, reference compound], the Cell viability is reported as 106%.

Still in this data set, the particulars now being: human, 4 h, 100 μM.
Turning to `C#Cc1cccc(Nc2ncnc3cc(OCCOC)c(OCCOC)cc23)c1` [Erlotinib, reference compound], the Cell viability is 108%.
`N#CC[C@H](C1CCCC1)n1cc(-c2ncnc3[nH]ccc23)cn1` [Ruxolitinib, reference compound]: the Cell viability was 88%.
Turning to `CS(=O)(=O)CCNCc1ccc(-c2ccc3ncnc(Nc4ccc(OCc5cccc(F)c5)c(Cl)c4)c3c2)o1` [Lapatinib, reference compound], the Cell viability is recorded as 104%.
Take `COc1cc2ncnc(Nc3ccc(F)c(Cl)c3)c2cc1OCCCN1CCOCC1` [Gefitinib, reference compound]: the Cell viability was determined as 104%.
With `CCCS(=O)(=O)Nc1ccc(F)c(C(=O)c2c[nH]c3ncc(-c4ccc(Cl)cc4)cc23)c1F` [Vemurafenib, reference compound], the Cell viability is on record as 102%.
On to `Cc1cn(-c2cc(NC(=O)c3ccc(C)c(Nc4nccc(-c5cccnc5)n4)c3)cc(C(F)(F)F)c2)cn1` [Nilotinib, reference compound], for which the Cell viability is 105%.

The data set is the same for the next values; noted with them: human, 24 h, 1 μM.
On to `C#Cc1cccc(Nc2ncnc3cc(OCCOC)c(OCCOC)cc23)c1` [Erlotinib, reference compound], for which the Cell viability was determined as 99%.
In the case of `N#CC[C@H](C1CCCC1)n1cc(-c2ncnc3[nH]ccc23)cn1` [Ruxolitinib, reference compound], the Cell viability is on record as 100%.
Turning to `CCN(CC)CCNC(=O)c1c(C)[nH]c(/C=C2\C(=O)Nc3ccc(F)cc32)c1C` [Sunitinib, reference compound], the Cell viability is 96%.
As to `CS(=O)(=O)CCNCc1ccc(-c2ccc3ncnc(Nc4ccc(OCc5cccc(F)c5)c(Cl)c4)c3c2)o1` [Lapatinib, reference compound], the Cell viability came out at 98%.
Still for that read-out and setting: the figure for `CC(C)Oc1cccc(-c2cc(-c3ccc(N4CCNCC4)cc3)cnc2N)c1` [Compound 21, 3-(3-isopropoxyphenyl)-5-(4-(piperazin-1-yl)phenyl)pyridin-2-amine] is 98%; for `COc1cc(-c2cc(-c3ccc(N4CCNCC4)cc3)cnc2N)ccc1C` [Compound 23, 3-(3-methoxy-4-methylphenyl)-5-(4-(piperazin-1-yl)phenyl)pyridin-2-amine] it is 98%.
Consider `COc1cc(OC)cc(-c2cncc(-c3ccc(N4CCNCC4)cc3)c2)c1` [Compound 33, 1-(4-(5-(3,5-dimethoxyphenyl)pyridin-3-yl)phenyl)piperazine], for which the Cell viability worked out at 101%.
`COc1cc2ncnc(Nc3ccc(F)c(Cl)c3)c2cc1OCCCN1CCOCC1` [Gefitinib, reference compound]: the Cell viability came out at 98%.
Consider `CCCS(=O)(=O)Nc1ccc(F)c(C(=O)c2c[nH]c3ncc(-c4ccc(Cl)cc4)cc23)c1F` [Vemurafenib, reference compound], for which the Cell viability came to 95%.
With `Cc1nc(Nc2ncc(C(=O)Nc3c(C)cccc3Cl)s2)cc(N2CCN(CCO)CC2)n1` [Dasatinib, reference compound], the Cell viability stood at 87%.
With `Cc1cn(-c2cc(NC(=O)c3ccc(C)c(Nc4nccc(-c5cccnc5)n4)c3)cc(C(F)(F)F)c2)cn1` [Nilotinib, reference compound], the Cell viability was determined as 100%.

Staying with this data set, now noted: human, 24 h, 10 μM.
Take `C#Cc1cccc(Nc2ncnc3cc(OCCOC)c(OCCOC)cc23)c1` [Erlotinib, reference compound]: the Cell viability worked out at 84%.
Regarding `N#CC[C@H](C1CCCC1)n1cc(-c2ncnc3[nH]ccc23)cn1` [Ruxolitinib, reference compound], the Cell viability is 90%.
On the same count and under the same terms, the figure for `CS(=O)(=O)CCNCc1ccc(-c2ccc3ncnc(Nc4ccc(OCc5cccc(F)c5)c(Cl)c4)c3c2)o1` [Lapatinib, reference compound] is 92%; for `CC(C)Oc1cccc(-c2cc(-c3ccc(N4CCNCC4)cc3)cnc2N)c1` [Compound 21, 3-(3-isopropoxyphenyl)-5-(4-(piperazin-1-yl)phenyl)pyridin-2-amine] it is 82%; for `COc1cc(-c2cc(-c3ccc(N4CCNCC4)cc3)cnc2N)ccc1C` [Compound 23, 3-(3-methoxy-4-methylphenyl)-5-(4-(piperazin-1-yl)phenyl)pyridin-2-amine] it is 86%.
In the case of `COc1cc(OC)cc(-c2cncc(-c3ccc(N4CCNCC4)cc3)c2)c1` [Compound 33, 1-(4-(5-(3,5-dimethoxyphenyl)pyridin-3-yl)phenyl)piperazine], the Cell viability is 92%.
With `COc1cc2ncnc(Nc3ccc(F)c(Cl)c3)c2cc1OCCCN1CCOCC1` [Gefitinib, reference compound], the Cell viability was 82%.
With `CCCS(=O)(=O)Nc1ccc(F)c(C(=O)c2c[nH]c3ncc(-c4ccc(Cl)cc4)cc23)c1F` [Vemurafenib, reference compound], the Cell viability turned out to be 77%.
For the molecule `Cc1cn(-c2cc(NC(=O)c3ccc(C)c(Nc4nccc(-c5cccnc5)n4)c3)cc(C(F)(F)F)c2)cn1` [Nilotinib, reference compound], the Cell viability is given as 101%.

Still in this data set, the particulars now being: human, 24 h, 100 μM.
In the case of `C#Cc1cccc(Nc2ncnc3cc(OCCOC)c(OCCOC)cc23)c1` [Erlotinib, reference compound], the Cell viability amounted to 84%.
In the case of `CS(=O)(=O)CCNCc1ccc(-c2ccc3ncnc(Nc4ccc(OCc5cccc(F)c5)c(Cl)c4)c3c2)o1` [Lapatinib, reference compound], the Cell viability is given as 89%.
Consider `COc1cc2ncnc(Nc3ccc(F)c(Cl)c3)c2cc1OCCCN1CCOCC1` [Gefitinib, reference compound], for which the Cell viability worked out at 85%.
As to `Cc1cn(-c2cc(NC(=O)c3ccc(C)c(Nc4nccc(-c5cccnc5)n4)c3)cc(C(F)(F)F)c2)cn1` [Nilotinib, reference compound], the Cell viability is given as 91%.

For the origin of these results see US20170190705A1, “Compositions and Methods for Inhibiting BMP” (THE BRIGHAM AND WOMAN'S HOSPITAL, INC., priority 2014, published 2017).
